# Measurements published in patent US12447198B2, “Peptides and fragments for treating diabetes and associated metabolic diseases” (Betavive Ltd., priority 2021, dated 2025).
# Legend:
# NOD mice [1] = test: Incidence of spontaneous autoimmune type 1 diabetes / normoglycemia in NOD mice; format: in vivo, mouse
# Experimental: Non-Obese Diabetic (NOD) mice are a polygenic model for spontaneous autoimmune type 1 diabetes (T1D). NOD mice have an elevated risk for development of autoimmune type 1 diabetes. Thus, NOD mice were used to determine whether treatment IGF-2 reduces spontaneous development of type 1 diabetes.
# In this experiment, one group of NOD mice (right panel) was injected with 3000 μg/kg of IGF-2 on each of 76 consecutive days, and a second group of NOD mice (left panel) was injected with saline. […] More specifically, at the end of the 76 days of treatment, only two of the treated mice had developed high glucose levels.
# FIG. 30A depicts how many NOD mice have developed autoimmune type I diabetes during an initial 66 days of treatment with IGF-2, and at various intervals post-treatment. In this experiment, one group of NOD mice was injected with 3000 μg/kg of IGF-2 on each of 66 consecutive days, and a second group of NOD mice was injected with saline.
# (§1) In one exemplary experiment, NOD mice were treated with a 3000 μg/kg daily doses of IGF-2 for 150 days. ⅘ of the treated mice maintained normoglycemia compared to ¼ of the control mice. In another exemplary experiment, NOD mice were treated with a 3000 μg/kg daily dose of IGF-2 for 75 days with follow-up glucose measurements taken for an additional 90 days (during which IGF-2 was not administered). ⅝ of the treated mice maintained normoglycemia compared to 2/11 of the control mice.
# β-MIN6 cells = test: Insulin secretion of β-MIN6 cells following glucose induction; format: cell-based, mouse; settings: 1 week treatment; IGF-2 5 nM, 20 nM, 80 nM
# From the text: β-MIN6 cells serve as an in vitro model of mouse pancreatic islets. β-MIN6 cells were used as an in vitro model to measure the effects of treatment with IGF-2.
# db/db mice [2] = test: 14 hour fasting blood glucose in db/db mice treated with IGF-2; format: in vivo, mouse
# Experimental: db/db mice are bred to have a leptin deficiency, increasing susceptibility of the mice to obesity, insulin resistance, and type 2 diabetes (T2D).
# In this experiment, one group of db/db mice was injected with 3000 μg/kg/day of IGF-2 for 68 days, a second group of db/db mice was injected with 12000 μg/kg/day of IGF-2 for 66 days, and a third group of db/db mice was injected with saline once a day for 68 days.
# In one experiment (left panel), one group of db/db mice was injected with a daily dose of 12000 μg/kg of IGF-2 divided in two injections per day for 70 days, while another group of db/db mice was injected with saline. […] In another experiment (right panel), one group of db/db mice was injected with a daily dose of 12000 μg/kg of IGF-2 divided in two injections per day for 35 days, while another group of db/db mice was injected with saline.
# In one exemplary experiment, db/db mice were treated with a 12,000 μg/kg daily dose for 70 days with 70 days of follow up (during which IGF-2 was not administered). All the treated mice maintained normoglycemia for at least 50 days following treatment. In another exemplary experiment, db/db mice were treated with a 12,000 μg/kg daily dose for 35 days with 35 days of follow up (during which IGF-2 was not administered). All the treated mice maintained normoglycemia for 35 days following treatment.
# STZ-treated mice = test: Pancreas histology and insulin immunohistochemical staining of islets; format: in vivo, mouse
# Experimental: FIG. 21 depicts pancreas histology results on STZ-treated mice. […] The non-control mice were treated once a day for 10 days with a 3000 μg/kg dose of IGF-2. The mice were sacrificed on day 35 and pancreas cells were assessed as being insulin positive or negative.
# db/db mice [3] = test: Histopathology and immunohistochemical staining of pancreas islet cells in db/db mice; format: in vivo, mouse; settings: sacrificed 70 days after the end of treatment
# Experimental: FIG. 27 provides results of histopathology and immunohistochemical studies showing the number of pancreas islet cells that test positive for insulin (left panel) and glucagon (right panel) in db/db mice. In this experiment, one group of db/db mice was injected with 12000 μg/kg of IGF-2 on each of 70 consecutive days, a second group of db/db mice was injected with saline, and a third group of db/db mice was a naïve control group. The mice were sacrificed for pathology 70 days after the end of the initial 70 day treatment.
# In this experiment, one group of db/db mice (labeled X4) was injected with 12000 μg/kg of IGF-2 on each of 70 consecutive days, a second group of db/db mice (labeled X1) was injected with 3000 μg/kg of IGF-2 on each of 70 consecutive days, and a third group of db/db mice (labeled control) was injected with saline. The mice were sacrificed for pathology 70 days after the end of the initial 70 day treatment. […] The control panels show a positive stain for insulin, which increases in intensity in the 3000 μg/kg/day mice, and increases again in intensity in the 12,000 μg/kg/day mice.
# NOD mice [4] = test: Serum insulin / insulin secretion in NOD mice treated with IGF-2; format: in vivo, mouse
# Experimental: FIG. 30B depicts the levels of serum insulin in NOD mice measured two weeks after a 66 day course of treatment using IGF-2. Mice that were treated with 3000 μg/kg/day of IGF-2 had serum insulin levels that were about 4-fold higher than the control mice.
# as §1
# STZ-treated mouse islets = test: Insulin secretion from STZ-treated mouse islets; format: cell-based; settings: islets treated with 2.5 mM STZ; 48 hours after treatment; IGF-2 50 nM and 500 nM, GLP-1 100 nM and 1000 nM
# Experimental: Mouse islet cells were treated with 2.5 mM STZ and subsequently treated with either IGF-2 (FA) at 50 nM and 500 nM, or with GLP-1 at 100 nM and 1000 nM.
substance,measurement,setting,value
insulin-like growth factor 2 [IGF-2],fraction of the treated mice that maintained normoglycemia,"NOD mice [1]; 3000 μg/kg daily dose for 75 days, follow-up for an additional 90 days, control 2/11",⅝
same,fraction of the treated mice that maintained normoglycemia,"NOD mice [1]; 3000 μg/kg daily doses for 150 days, control ¼",⅘
same,incidence of spontaneous autoimmune type 1 diabetes,"NOD mice [1]; 3000 μg/kg on each of 66 consecutive days and post-treatment, vs saline control",significantly reduced
same,incidence of spontaneous autoimmune attack,NOD mice [1]; 3000 μg/kg on each of 76 consecutive days vs saline,reduced dramatically
same,number of treated mice that had developed high glucose levels,"NOD mice [1]; 3000 μg/kg, at the end of the 76 days of treatment",two
same,insulin secretion following glucose induction,β-MIN6 cells,increases insulin secretion (following glucose induction) in a dose-dependent manner
same,time following treatment for which all the treated mice maintained normoglycemia,"db/db mice [2]; 12,000 μg/kg daily dose for 35 days, 35 days of follow up",35 days
same,time following treatment for which all the treated mice maintained normoglycemia,"db/db mice [2]; 12,000 μg/kg daily dose for 70 days, 70 days of follow up",at least 50 days
same,14 hour fasting blood glucose levels,"db/db mice [2]; FIG. 25 left panel, 12000 μg/kg daily in two injections per day for 70 days",reduced blood glucose levels (14 hour fasting blood glucose levels) to a normal range
same,14 hour fasting blood glucose levels,"db/db mice [2]; FIG. 25 right panel, 12000 μg/kg daily in two injections per day for 35 days",reduced blood glucose levels (14 hour fasting blood glucose levels) to a normal range
same,14 hour fasting blood glucose levels,"db/db mice [2]; first group of db/db mice (FIG. 23), 3000 μg/kg/day for 68 days",reduced blood glucose levels (14 hour fasting blood glucose levels) to a normal range
same,14 hour fasting blood glucose levels,"db/db mice [2]; first group of db/db mice (FIG. 23), 12000 μg/kg/day for 66 days",reduced blood glucose levels (14 hour fasting blood glucose levels) to a normal range
same,14 hour fasting blood glucose levels,"db/db mice [2]; second group of db/db mice (FIG. 24), 12,000 μg/kg/day, 68 day treatment period",reduced blood glucose levels (14 hour fasting blood glucose levels) to a normal range
same,number of functional beta cells,"STZ-treated mice; 3000 μg/kg once a day for 10 days, sacrificed on day 35, permanently cured mice",almost four fold increase
same,number of cells that test positive for insulin,"STZ-treated mice; 3000 μg/kg once a day for 10 days, sacrificed on day 35, permanently cured vs non-permanently cured and saline control",significant increase
same,level of insulin in pancreas islets as compared to a naïve mouse (immunohistochemical staining),STZ-treated mice; non-permanently cured mouse,lower level of insulin in its pancreas islets
same,level of insulin in pancreas islets as compared to a naïve mouse (immunohistochemical staining),STZ-treated mice; permanently cured mouse,higher level of insulin in its pancreas islets
same,increase in the number of insulin-positive cells,db/db mice [3]; 12000 μg/kg on each of 70 consecutive days,more than 50%
same,insulin positive cells (immunohistochemical staining),db/db mice [3]; 3000 and 12000 μg/kg on each of 70 consecutive days vs saline,increase in insulin positive cells in a dose-dependent manner
same,serum insulin levels relative to the control mice,"NOD mice [4]; 3000 μg/kg/day, two weeks after a 66 day course of treatment",about 4 fold
same,average insulin secretion of the treated mice,"NOD mice [4]; both NOD experiments of Example 14, 3000 μg/kg daily",five times greater than the control mice
same,insulin secretion,STZ-treated mouse islets,increased in a dose dependent manner
